The record followed here is patent publication US9302999B2, “Substituted triazoles as herbicides” (E. I. DU PONT DE NEMOURS AND COMPANY, priority 2012, dated 2016).

Experiment [1] has as its system barnyardgrass (Echinochloa crus-galli). The experiment is described as follows: Test E pre-/postemergence: barnyardgrass. In kind it is in vivo. The following applies: scale 0 to 100. The text has this:
(§1) Seeds of plant species selected from corn (Zea mays), soybean (Glycine max), velvetleaf (Abutilon theophrasti), lambsquarters (Chenopodium album), poinsettia, wild (wild poinsettia, Euphorbia heterophylla), pigweed, palmer (palmer pigweed, Amaranthus palmeri), waterhemp (common waterhemp, Amaranthus rudis), smartweed (ladysthumb smartweed, Polygonum persicaria), surinam grass (Brachiaria decumbens), crabgrass, large (large crabgrass, Digitaria sanguinalis), crabgrass, Brazil (Brazilian crabgrass, Digitaria horizontalis), panicum, fall (fall panicum, Panicum dichotomiflorum), foxtail, giant (giant foxtail, Setaria faberii), foxtail, green (green foxtail, Setaria viridis), goosegrass (Eleusine indica), johnsongrass (Sorghum halepense), ragweed (common ragweed, Ambrosia elation), barnyardgrass (Echinochloa crus-galli), sandbur (southern sandbur, Cenchrus echinatus), arrowleaf sida (Sida rhombifolia), ryegrass, Italian (Italian ryegrass, Lolium multiflorum), dayflower, (VA) (Virginia dayflower, Commelina virginica), field bindweed (Convolvulus arvensis), cocklebur (common cocklebur, Xanthium strumarium), morningglory (Ipomoea coccinea), nightshade (eastern black nightshade, Solanum ptycanthum), kochia (Kochia scoparia), nutsedge, yellow (yellow nutsedge, Cyperus esculentus) and beggarticks (hairy beggarticks, Bidens pilosa) were planted into a silt loam soil and treated preemergence with test chemicals formulated in a non-phytotoxic solvent mixture which included a surfactant. At the same time, plants selected from these crop and weed species were planted in pots containing a growing medium comprising spaghnum peat moss, vermiculite, wetting agent and starter nutrients and treated with postemergence applications of some of the test chemicals formulated in the same manner. Plants ranged in height from 2 to 18 cm for postemergence treatments (1- to 4-leaf stage).
(§2) Treated plants and controls were maintained in a greenhouse for 14 to 21 days, after which time all species were compared to controls and visually evaluated. Plant response ratings, summarized in Table E, are based on a scale of 0 to 100 where 0 is no effect and 100 is complete control. A dash (-) response means no test result.

Experiment [2] relates to surinam grass (Brachiaria decumbens). The experiment is described as follows: Test E pre-/postemergence: surinam grass. Conditions: Preemergence, scale 0 to 100. Format: in vivo.
Source text: as §1, §2

Experiment [3] has as its system foxtail, giant (giant foxtail, Setaria faberii). As to the kind of experiment: Test E pre-/postemergence: foxtail, giant. Format: in vivo. The following applies: Preemergence, scale 0 to 100.
Source text: as §1, §2

The subject of a further experiment is soybean (Glycine max). The experiment is described as follows: Test E pre-/postemergence: soybean. Conditions: scale 0 to 100. In kind it is in vivo.
Source text: as §1, §2

In experiment [4] the test system is johnsongrass (Sorghum halepense). As to the kind of experiment: Test F pre-/postemergence: johnsongrass. The following applies: Preemergence. In kind it is in vivo.
Source text: Seeds of plant species selected from corn (Zea mays), soybean (Glycine max), velvetleaf (Abutilon theophrasti), lambsquarters (Chenopodium album), poinsettia, wild (wild poinsettia, Euphorbia heterophylla), pigweed, palmer (palmer pigweed, Amaranthus palmeri), waterhemp (common waterhemp, Amaranthus rudis), surinam grass (Brachiaria decumbens), crabgrass, Brazil (Brazilian crabgrass, Digitaria horizontalis), panicum, fall (fall panicum Panicum dichotomiflorum), crabgrass, large (large crabgrass, Digitaria sanguinalis), foxtail, giant (giant foxtail, Setaria faberii), foxtail, green (green foxtail Setaria viridis), goosegrass (Eleusine indica), ragweed (common ragweed, Ambrosia elatior), barnyardgrass (Echinochloa crus-galli), sandbur (southern sandbur, Cenchrus echinatus), arrowleaf sida (Sida rhombifolia), ryegrass, Italian (Italian ryegrass, Lolium multiflorum), dayflower, VA (Virginia (VA) dayflower, Commelina virginica), field bindweed (Convolvulus arvensis), cocklebur (common cocklebur, Xanthium strumarium), morningglory (Ipomoea coccinea), nightshade (eastern black nightshade, Solanum ptycanthum), kochia (Kochia scoparia), nutsedge, yellow (yellow nutsedge, Cyperus esculentus), johnsongrass (Sorghum halepense), smartweed (ladysthumb smartweed, Polygonum persicaria), and beggarticks (hairy beggarticks, Bidens pilosa), were planted into a silt loam soil and treated preemergence with test chemicals formulated in a non-phytotoxic solvent mixture which included a surfactant. At the same time, plants selected from these crop and weed species and also pigweed (Amaranthus retroflexus), waterhemp_RES1 (ALS/Triazine resistant common waterhemp, Amaranthus rudis) and waterhemp_RES2 (ALS/HPPD resistant common waterhemp, Amaranthus rudis) were planted in pots containing a planting medium comprising spaghnum peat moss, vermiculite, wetting agent and starter nutrients treated with postemergence applications of some of the test chemicals formulated in the same manner. Plants ranged in height from 2 to 18 cm for postemergence treatments (1- to 4-leaf stage).
as §2

The next experiment relates to Barnyardgrass. As to the kind of experiment: Test C postemergence: barnyardgrass. In kind it is in vivo, Echinochloa crus-galli. The following applies: 125 g ai/ha, scale 0 to 100, 0 no effect, 100 complete control. The text has this: (§3) Seeds of plant species selected from blackgrass (Alopecurus myosuroides), bromegrass, downy (downy bromegrass, Bromus tectorum), foxtail, green (green foxtail, Setaria viridis), ryegrass, Italian (Italian ryegrass, Lolium multiflorum), winter wheat (Triticum aestivum), wild oat (Avena fatua), galium (catchweed bedstraw, Galium aparine), bermudagrass (Cynodon dactylon), surinam grass (Brachiaria decumbens), cocklebur (common cocklebur, Xanthium strumarium), corn (Zea mays), large crabgrass (Digitaria sanguinalis), woolly cupgrass (Eriochloa villosa), foxtail, giant (giant foxtail, Setaria faberii), goosegrass (Eleusine indica), johnsongrass (Sorghum halepense), kochia (Kochia scoparia), lambsquarters (Chenopodium album), morningglory (Ipomoea coccinea), nightshade (eastern black nightshade, Solanum ptycanthum), nutsedge, yellow (yellow nutsedge, Cyperus esculentus), pigweed (Amaranthus retroflexus), ragweed (common ragweed, Ambrosia elation), soybean (Glycine max), common (oilseed) sunflower (Helianthus annuus), Russian thistle (Salsola kali) and velvetleaf (Abutilon theophrasti) were planted into a blend of loam soil and sand and treated preemergence with test chemicals formulated in a non-phytotoxic solvent mixture which included a surfactant.
At the same time, plants selected from these crop and weed species and also barley (winter barley, Hordeum vulgare), canarygrass (Phalaris minor), chickweed (common chickweed, Stellaria media) windgrass (Apera spica-venti) and deadnettle (henbit deadnettle, Lamium amplexicaule) were planted in pots containing Redi-Earth® planting medium (Scotts Company, 14111 Scottslawn Road, Marysville, Ohio 43041) comprising spaghnum peat moss, vermiculite, wetting agent and starter nutrients and treated with postemergence applications of test chemicals formulated in the same manner. Plants ranged in height from 2 to 18 cm (1- to 4-leaf stage) for postemergence treatments.
(§4) Treated plants and controls were maintained in a greenhouse for 13 to 15 days, after which time all species were compared to controls and visually evaluated. Plant response ratings, summarized in Table C, are based on a scale of 0 to 100 where 0 is no effect and 100 is complete control. A dash (-) response means no test result.

Another experiment has as its system Waterhemp. As to the kind of experiment: Test C preemergence: waterhemp. The following applies: 62 g ai/ha, scale of 0 to 100, 0 is no effect, 100 is complete control. In kind it is in vivo.
Source text: as §3, §4

Where [5] appears, read: 16 g ai/ha, scale 0 to 100 (0 no effect, 100 complete control).
[6] abbreviates: 31 g ai/ha, scale 0 to 100 (0 no effect, 100 complete control).

With `Cc1nn(-c2ccc(F)cc2)nc1Cc1ccnc(C(F)(F)F)c1` [Compound 16, 4-[[2-(4-fluorophenyl)-5-methyl-2H-1,2,3-triazol-4-yl]methyl]-2-(trifluoromethyl)pyridine], the “Plant response rating: Barnyardgrass” value in experiment [1] (Preemergence, 8 g ai/ha) was found to be 0; in experiment [1] (Preemergence, 16 g ai/ha), 10; in experiment [1] (Preemergence, 31 g ai/ha), 50; in experiment [1] (Preemergence, 62 g ai/ha), 98; in experiment [1] (Preemergence, 125 g ai/ha), 98. Further, the “Plant response rating: Surinam Grass” value was 0 in experiment [2] (8 g ai/ha); 0 in experiment [2] (16 g ai/ha); 0 in experiment [2] (31 g ai/ha); 30 in experiment [2] (62 g ai/ha); 35 in experiment [2] (125 g ai/ha). Moreover, the “Plant response rating: Foxtail, Giant” value in experiment [3] (8 g ai/ha) came out at 5; in experiment [3] (16 g ai/ha), 80; in experiment [3] (31 g ai/ha) it was 100; in experiment [3] (125 g ai/ha), 100. In addition, the “Plant response rating: Soybean” value in the experiment on soybean (Glycine max) (Preemergence, 8 g ai/ha) is reported as 0; in the experiment with soybean (Glycine max) (Preemergence, 16 g ai/ha), 0; in the experiment on soybean (Glycine max) (Preemergence, 31 g ai/ha), 0; with soybean (Glycine max) (Preemergence, 62 g ai/ha), 0; in the experiment on soybean (Glycine max) (Preemergence, 125 g ai/ha) it was 20.
In the case of `Cc1nn(-c2ccc(C(F)(F)F)cc2)nc1Cc1ccnc(C(F)(F)F)c1` [Compound 47, 4-[[5-methyl-2-[4-(trifluoromethyl)phenyl]-2H-1,2,3-triazol-4-yl]methyl]-2-(trifluoromethyl)pyridine], the “Plant response rating: Barnyardgrass” value in experiment [1] (Postemergence, 250 g ai/ha) came out at 60; in experiment [1] (Postemergence, 16 g ai/ha) it was 30; in experiment [1] (Postemergence, 31 g ai/ha), 30; in experiment [1] (Postemergence, 62 g ai/ha), 40; in experiment [1] (Postemergence, 125 g ai/ha) it was 45; in experiment [1] (Preemergence, 16 g ai/ha), 5. Further, the “Plant response rating: Barnyardgrass” value in experiment [1] (Preemergence, 31 g ai/ha) is on record as 30; in experiment [1] (Preemergence, 62 g ai/ha), 85; in experiment [1] (Preemergence, 125 g ai/ha), 100; in experiment [1] (Preemergence, 250 g ai/ha) it was 100. Moreover, the “Plant response rating: Surinam Grass” value in experiment [2] (16 g ai/ha) was found to be 15; in experiment [2] (31 g ai/ha), 20; in experiment [2] (62 g ai/ha), 25; in experiment [2] (125 g ai/ha) it was 40; in experiment [2] (250 g ai/ha), 65. For the same molecule, the “Plant response rating: Foxtail, Giant” value in experiment [3] (16 g ai/ha) worked out at 90; in experiment [3] (31 g ai/ha), 100; in experiment [3] (62 g ai/ha), 100; in experiment [3] (125 g ai/ha) it was 100; in experiment [3] (250 g ai/ha), 100. The “Plant response rating: Soybean” value in the experiment on soybean (Glycine max) (Postemergence, 250 g ai/ha) worked out at 75; in the experiment on soybean (Glycine max) (Postemergence, 16 g ai/ha) it was 50; in the experiment with soybean (Glycine max) (Postemergence, 31 g ai/ha), 50; with soybean (Glycine max) (Postemergence, 62 g ai/ha), 60; with soybean (Glycine max) (Postemergence, 125 g ai/ha), 60; in the experiment on soybean (Glycine max) (Preemergence, 16 g ai/ha), 0. Further, the “Plant response rating: Soybean” value in the experiment with soybean (Glycine max) (Preemergence, 31 g ai/ha) worked out at 40; with soybean (Glycine max) (Preemergence, 62 g ai/ha), 40; with soybean (Glycine max) (Preemergence, 125 g ai/ha), 40; in the experiment with soybean (Glycine max) (Preemergence, 250 g ai/ha) it was 40.
For `Cc1nn(-c2ccc(F)cc2)nc1Oc1ccnc(C(F)(F)F)c1` [Compound 129, 4-[[2-(4-fluorophenyl)-5-methyl-2H-1,2,3-triazol-4-yl]oxy]-2-(trifluoromethyl)pyridine], the “Plant response rating: Barnyardgrass” value is 0 in experiment [1] (Preemergence, 8 g ai/ha); 0 in experiment [1] (Preemergence, 16 g ai/ha); 5 in experiment [1] (Preemergence, 31 g ai/ha); 10 in experiment [1] (Preemergence, 62 g ai/ha); 35 in experiment [1] (Preemergence, 125 g ai/ha). Also, the “Plant response rating: Surinam Grass” value in experiment [2] (8 g ai/ha) is 0; in experiment [2] (16 g ai/ha), 0; in experiment [2] (31 g ai/ha), 15; in experiment [2] (62 g ai/ha), 15; in experiment [2] (125 g ai/ha), 60. In addition, the “Plant response rating: Foxtail, Giant” value worked out at 0 in experiment [3] (8 g ai/ha); 20 in experiment [3] (16 g ai/ha); 75 in experiment [3] (31 g ai/ha); 98 in experiment [3] (62 g ai/ha); 100 in experiment [3] (125 g ai/ha). The “Plant response rating: Soybean” value with soybean (Glycine max) (Preemergence, 8 g ai/ha) is on record as 0; in the experiment on soybean (Glycine max) (Preemergence, 16 g ai/ha), 15; in the experiment on soybean (Glycine max) (Preemergence, 31 g ai/ha), 15; in the experiment on soybean (Glycine max) (Preemergence, 62 g ai/ha), 20; in the experiment on soybean (Glycine max) (Preemergence, 125 g ai/ha), 25.
As for `Fc1ccc(-n2nc(Cc3ccnc(C(F)(F)F)c3)c(OCC(F)(F)F)n2)cc1` [Compound 142], the “Plant response rating, Johnsongrass” value in experiment [4] (setting [5]) is given as 0; in experiment [4] (setting [6]), 5; in experiment [4] (125 g ai/ha, scale 0 to 100), 30.
For the molecule `CCCc1nn(-c2ccc(F)cc2)nc1Cc1ccnc(C(F)(F)F)c1` [Compound 153], the “Plant response rating, Johnsongrass” value was determined as 0 in experiment [4] (setting [5]); 10 in experiment [4] (setting [6]); 50 in experiment [4] (62 g ai/ha, scale 0 to 100); 100 in experiment [4] (125 g ai/ha, scale 0 to 100); 100 in experiment [4] (250 g ai/ha, scale 0 to 100). For the same molecule, the “Plant response rating, Barnyardgrass” value with Barnyardgrass worked out at 45. For the same molecule, the “Plant response rating, Waterhemp” value in the experiment with Waterhemp worked out at 100.
Turning to `CCc1nn(-c2ccc(F)cc2)nc1Oc1ccnc(C(F)(F)F)c1` [Compound 166], the “Plant response rating, Barnyardgrass” value with Barnyardgrass is 45. Also, the “Plant response rating, Waterhemp” value in the experiment with Waterhemp worked out at 100.
For `CCCc1nn(-c2ccc(C(F)(F)F)c(F)c2)nc1Oc1ccnc(C(F)(F)F)c1` [Compound 185], the “Plant response rating, Barnyardgrass” value with Barnyardgrass came out at 70.
As for `CCOc1nn(-c2ccc(Br)cc2)nc1Cc1ccnc(C(F)(F)F)c1` [Compound 189], the “Plant response rating, Waterhemp” value in the experiment on Waterhemp was found to be 100.
